The source of these data is ChEMBL document CHEMBL1153846, “QSAR studies for diarylpyrimidines against HIV-1 reverse transcriptase wild-type and mutant strains” (Eur J Med Chem, 2009).

The test system of the first data set is Human immunodeficiency virus type 1 reverse transcriptase (Human immunodeficiency virus 1), Q72547 [L100I]. Put plainly: Inhibition of HIV1 reverse transcriptase L100I mutant.
Settings: not given
The compound `Cc1cc(C#N)cc(C)c1Oc1nc(Nc2ccc(C#N)cc2)ncc1[N+](=O)[O-]` displayed a log(1/C) of 6.92.
For the compound `Cc1cc(C#N)cc(C)c1Nc1nc(Nc2ccc(C#N)cc2)nc(NO)c1Br`, the log(1/C) amounted to 8.92.
The same measure, in the same setting: the result for `Cc1cnc(Nc2ccc(C#N)cc2)nc1Nc1c(C)cc(C#N)cc1C` reads 7.8; that for `Cc1cc(C)c(Oc2nc(Nc3ccc(C#N)cc3)ncc2Br)c(C)c1`, 7.96; that for `N#Cc1ccc(Nc2nccc(Nc3c(Br)cc(F)cc3Br)n2)cc1`, 7.82.
`Cc1cc(C#N)cc(C)c1Nc1nc(Nc2ccc(C#N)cc2)ncc1C#N` registered a log(1/C) of 7.04.
Regarding `Cc1cc(C#N)cc(C)c1Nc1nc(Nc2ccc(C#N)cc2)ncc1Cl`, the log(1/C) came out at 8.28.
The same measure, in the same setting: the result for `Cc1cc(C#N)cc(C)c1Sc1ccnc(Nc2ccc(C#N)cc2)n1` reads 6.76; that for `N#Cc1ccc(Nc2nccc(Nc3c(Cl)cc(Cl)cc3Cl)n2)cc1`, 7.85; that for `Cc1cc(C#N)cc(C)c1Oc1nc(Nc2ccc(C#N)cc2)nc(N)c1Br` [ETRAVIRINE], 8.48.
Same read-out and setting: the result for `Cc1cc(Br)c(Nc2ccnc(Nc3ccc(C#N)cc3)n2)c(Br)c1` reads 8.52.
On to `Cc1cc(C#N)cc(C)c1Nc1ccnc(Nc2ccc(C#N)cc2)n1`, for which the log(1/C) worked out at 7.47.
Still for that read-out and setting: the result for `Cc1cc(C#N)cc(C)c1Oc1nc(Nc2ccc(C#N)cc2)ncc1N` reads 7.8.
With `Cc1cc(C)c(Oc2ccnc(Nc3ccc(C#N)cc3)n2)c(C)c1`, the log(1/C) is 7.66.
For `Cc1cc(Cl)cc(Cl)c1Nc1ccnc(Nc2ccc(C#N)cc2)n1`, the log(1/C) was 7.22.
Same read-out and setting: next, `Cc1cc(C)c(Nc2nc(Nc3ccc(C#N)cc3)ncc2Cl)c(C)c1`: 7.77.

Another data set deals with Human immunodeficiency virus type 1 reverse transcriptase (Human immunodeficiency virus 1), Q72547 [[…]]. Put plainly: Inhibition of HIV1 reverse transcriptase Y188L mutant.
Settings: not given
On to `Cc1cc(C#N)cc(C)c1Oc1nc(Nc2ccc(C#N)cc2)ncc1[N+](=O)[O-]`, for which the log(1/C) was determined as 6.11.
The same measure, in the same setting: the result for `Cc1cnc(Nc2ccc(C#N)cc2)nc1Nc1c(C)cc(C#N)cc1C` reads 7.8.
The compound `Cc1cc(C)c(Oc2nc(Nc3ccc(C#N)cc3)ncc2Br)c(C)c1` displayed a log(1/C) of 7.57.
On the same count and under the same terms, the result for `N#Cc1ccc(Nc2nccc(Nc3c(Br)cc(F)cc3Br)n2)cc1` reads 7.19.
On the same count and under the same terms, the result for `Cc1cc(C#N)cc(C)c1Nc1nc(Nc2ccc(C#N)cc2)ncc1C#N` reads 8.07.
`Cc1cc(C#N)cc(C)c1Nc1nc(Nc2ccc(C#N)cc2)ncc1Cl` showed a log(1/C) of 8.33.
On the same count and under the same terms, the result for `Cc1cc(C#N)cc(C)c1Sc1ccnc(Nc2ccc(C#N)cc2)n1` reads 7.36; that for `N#Cc1ccc(Nc2nccc(Nc3c(Cl)cc(Cl)cc3Cl)n2)cc1`, 7.
Same read-out and setting: next, `Cc1cc(C#N)cc(C)c1Oc1nc(Nc2ccc(C#N)cc2)nc(N)c1Br` [ETRAVIRINE]: 8.34; `Cc1cc(C#N)cc(C)c1Nc1ccnc(Nc2ccc(C#N)cc2)n1`: 8.11.
As for `Cc1cc(C#N)cc(C)c1Oc1nc(Nc2ccc(C#N)cc2)ncc1N`, the log(1/C) amounted to 8.24.
The same measure, in the same setting: next, `Cc1cc(C)c(Oc2ccnc(Nc3ccc(C#N)cc3)n2)c(C)c1`: 7.26; `Cc1cc(Cl)cc(Cl)c1Nc1ccnc(Nc2ccc(C#N)cc2)n1`: 7.07; `Cc1cc(C)c(Nc2nc(Nc3ccc(C#N)cc3)ncc2Cl)c(C)c1`: 7.47.

Test system in another data set: not listed separately
Nature of the data set: Hydrophobic index, Log P of the compound. Format: physicochemical. The conditions noted are these: octanol/water.
Regarding `Cc1cc(C#N)cc(C)c1Oc1nc(Nc2ccc(C#N)cc2)ncc1[N+](=O)[O-]`, the logP is recorded as 0.7.

The same data set, now with this note: octanol/water; read-out: logP.
As to `Cc1cc(C#N)cc(C)c1Nc1nc(Nc2ccc(C#N)cc2)nc(NO)c1Br`, the logP came to 2.18.
Still for that read-out and setting: the result for `Cc1cnc(Nc2ccc(C#N)cc2)nc1Nc1c(C)cc(C#N)cc1C` reads 1.49; that for `Cc1cc(C)c(Oc2nc(Nc3ccc(C#N)cc3)ncc2Br)c(C)c1`, 1.82; that for `N#Cc1ccc(Nc2nccc(Nc3c(Br)cc(F)cc3Br)n2)cc1`, 0.68.
On the same count and under the same terms, the result for `Cc1cc(C#N)cc(C)c1Nc1nc(Nc2ccc(C#N)cc2)ncc1C#N` reads 1.06; that for `Cc1cc(C#N)cc(C)c1Nc1nc(Nc2ccc(C#N)cc2)ncc1Cl`, 1.11.
Still for that read-out and setting: next, `Cc1cc(C#N)cc(C)c1Sc1ccnc(Nc2ccc(C#N)cc2)n1`: 2.06; `N#Cc1ccc(Nc2nccc(Nc3c(Cl)cc(Cl)cc3Cl)n2)cc1`: 0.51.
For `Cc1cc(C#N)cc(C)c1Oc1nc(Nc2ccc(C#N)cc2)nc(N)c1Br` [ETRAVIRINE], the logP came to 1.54.
As to `Cc1cc(Br)c(Nc2ccnc(Nc3ccc(C#N)cc3)n2)c(Br)c1`, the log partition coefficient (logP) turned out to be 1.44.
Take `Cc1cc(C#N)cc(C)c1Nc1ccnc(Nc2ccc(C#N)cc2)n1`: the logP worked out at 1.21.
Take `Cc1cc(C#N)cc(C)c1Oc1nc(Nc2ccc(C#N)cc2)ncc1N`: the log partition coefficient (logP) is -0.21.
The same measure, in the same setting: next, `Cc1cc(C)c(Oc2ccnc(Nc3ccc(C#N)cc3)n2)c(C)c1`: 1.82; `Cc1cc(Cl)cc(Cl)c1Nc1ccnc(Nc2ccc(C#N)cc2)n1`: 0.89.
The same measure, in the same setting: next, `Cc1cc(C)c(Nc2nc(Nc3ccc(C#N)cc3)ncc2Cl)c(C)c1`: 1.72.

In another data set the target is Human immunodeficiency virus type 1 reverse transcriptase (Human immunodeficiency virus 1) (UniProt Q72547). Put plainly: Inhibition of HIV1 wild type reverse transcriptase.
Settings: not given
`Cc1cc(C#N)cc(C)c1Oc1nc(Nc2ccc(C#N)cc2)ncc1[N+](=O)[O-]` gave a log(1/C) of 7.74.
Still for that read-out and setting: next, `Cc1cc(C#N)cc(C)c1Nc1nc(Nc2ccc(C#N)cc2)nc(NO)c1Br`: 8.4.
The same measure, in the same setting: next, `Cc1cnc(Nc2ccc(C#N)cc2)nc1Nc1c(C)cc(C#N)cc1C`: 9.1.
Same read-out and setting: the result for `Cc1cc(C)c(Oc2nc(Nc3ccc(C#N)cc3)ncc2Br)c(C)c1` reads 8.26; that for `N#Cc1ccc(Nc2nccc(Nc3c(Br)cc(F)cc3Br)n2)cc1`, 9.22.
For the compound `Cc1cc(C#N)cc(C)c1Nc1nc(Nc2ccc(C#N)cc2)ncc1C#N`, the log(1/C) amounted to 9.3.
The same measure, in the same setting: the result for `Cc1cc(C#N)cc(C)c1Nc1nc(Nc2ccc(C#N)cc2)ncc1Cl` reads 8.92; that for `Cc1cc(C#N)cc(C)c1Sc1ccnc(Nc2ccc(C#N)cc2)n1`, 8.24; that for `N#Cc1ccc(Nc2nccc(Nc3c(Cl)cc(Cl)cc3Cl)n2)cc1`, 9.15.
Still for that read-out and setting: the result for `Cc1cc(C#N)cc(C)c1Oc1nc(Nc2ccc(C#N)cc2)nc(N)c1Br` [ETRAVIRINE] reads 8.85.
Same read-out and setting: the result for `Cc1cc(Br)c(Nc2ccnc(Nc3ccc(C#N)cc3)n2)c(Br)c1` reads 9.15; that for `Cc1cc(C#N)cc(C)c1Nc1ccnc(Nc2ccc(C#N)cc2)n1`, 9.4; that for `Cc1cc(C#N)cc(C)c1Oc1nc(Nc2ccc(C#N)cc2)ncc1N`, 9.
With `Cc1cc(C)c(Oc2ccnc(Nc3ccc(C#N)cc3)n2)c(C)c1`, the log(1/C) was 8.54.
On the same count and under the same terms, the result for `Cc1cc(Cl)cc(Cl)c1Nc1ccnc(Nc2ccc(C#N)cc2)n1` reads 9; that for `Cc1cc(C)c(Nc2nc(Nc3ccc(C#N)cc3)ncc2Cl)c(C)c1`, 8.57.

The next data set has as its system Human immunodeficiency virus type 1 reverse transcriptase (Human immunodeficiency virus 1), Q72547 [Y181C]. Put plainly: Inhibition of HIV1 reverse transcriptase Y181C mutant.
Settings: not given
`Cc1cc(C#N)cc(C)c1Oc1nc(Nc2ccc(C#N)cc2)ncc1[N+](=O)[O-]` showed a log(1/C) of 6.52.
`Cc1cc(C#N)cc(C)c1Nc1nc(Nc2ccc(C#N)cc2)nc(NO)c1Br` came in with a log(1/C) of 7.92.
The same measure, in the same setting: the result for `Cc1cnc(Nc2ccc(C#N)cc2)nc1Nc1c(C)cc(C#N)cc1C` reads 7.92.
Same read-out and setting: the result for `Cc1cc(C)c(Oc2nc(Nc3ccc(C#N)cc3)ncc2Br)c(C)c1` reads 7.44.
Still for that read-out and setting: the result for `N#Cc1ccc(Nc2nccc(Nc3c(Br)cc(F)cc3Br)n2)cc1` reads 7.82; that for `Cc1cc(C#N)cc(C)c1Nc1nc(Nc2ccc(C#N)cc2)ncc1C#N`, 7.12.
Consider `Cc1cc(C#N)cc(C)c1Nc1nc(Nc2ccc(C#N)cc2)ncc1Cl`, for which the log(1/C) was determined as 7.85.
Still for that read-out and setting: next, `Cc1cc(C#N)cc(C)c1Sc1ccnc(Nc2ccc(C#N)cc2)n1`: 7.17; `N#Cc1ccc(Nc2nccc(Nc3c(Cl)cc(Cl)cc3Cl)n2)cc1`: 8.
In the case of `Cc1cc(C#N)cc(C)c1Oc1nc(Nc2ccc(C#N)cc2)nc(N)c1Br` [ETRAVIRINE], the log(1/C) was found to be 8.15.
Still for that read-out and setting: next, `Cc1cc(Br)c(Nc2ccnc(Nc3ccc(C#N)cc3)n2)c(Br)c1`: 8.47; `Cc1cc(C#N)cc(C)c1Nc1ccnc(Nc2ccc(C#N)cc2)n1`: 8.15; `Cc1cc(C#N)cc(C)c1Oc1nc(Nc2ccc(C#N)cc2)ncc1N`: 8.03.
In turn, `Cc1cc(C)c(Oc2ccnc(Nc3ccc(C#N)cc3)n2)c(C)c1` returned a log(1/C) of 7.42.
`Cc1cc(Cl)cc(Cl)c1Nc1ccnc(Nc2ccc(C#N)cc2)n1` gave a log(1/C) of 7.74.
On the same count and under the same terms, the result for `Cc1cc(C)c(Nc2nc(Nc3ccc(C#N)cc3)ncc2Cl)c(C)c1` reads 7.49.

One may read the logP as the decadic logarithm of the partition coefficient of the neutral form, usually between octanol and water.
